From ChEMBL document CHEMBL4138123, “Design, synthesis and biological evaluation of novel pyrazolochalcones as potential modulators of PI3K/Akt/mTOR pathway and inducers of apoptosis in breast cancer cells” (Eur J Med Chem, 2017)

Columns and labels:
HL-60(TB) = test: Cytotoxicity against human HL-60(TB) cells assessed as growth inhibition after 48 hrs by sulforhodamine B assay; assay type: functional; settings: HL-60, 48 h
HOP-62 [1] = test: Cytotoxicity against human HOP62 cells assessed as growth inhibition after 48 hrs by sulforhodamine B assay; assay type: functional; settings: HOP-62, 48 h
NCI-H23 = test: Cytotoxicity against human NCI-H23 cells assessed as growth inhibition after 48 hrs by sulforhodamine B assay; assay type: functional; settings: NCI-H23, 48 h
U-251 = test: Cytotoxicity against human U251 cells assessed as growth inhibition after 48 hrs by sulforhodamine B assay; assay type: functional; settings: U-251, 48 h
BT-549 [2] = test: Cytotoxicity against human BT549 cells assessed as growth inhibition after 48 hrs by sulforhodamine B assay; assay type: functional; settings: BT-549, 48 h
T47D [3] = test: Cytotoxicity against human T47D cells assessed as growth inhibition after 48 hrs by sulforhodamine B assay; assay type: functional
MDA-MB-468 = test: Cytotoxicity against human MDA-MB-468 cells assessed as growth inhibition after 48 hrs by sulforhodamine B assay; assay type: functional; settings: MDA-MB-468, 48 h
MCF7 = test: Cytotoxicity against human MCF7 cells assessed as growth inhibition after 48 hrs by MTT assay; assay type: functional, cell-based; settings: MCF7, 48 h
OVCAR-5 = test: Cytotoxicity against human OVCAR5 cells assessed as cell growth at 0.01 uM after 48 hrs by sulforhodamine B assay relative to control; assay type: functional; settings: OVCAR-5, 48 h, read-out: Activity
OVCAR-4 [4] = test: Cytotoxicity against human OVCAR4 cells assessed as cell growth at 0.01 uM after 48 hrs by sulforhodamine B assay relative to control; assay type: functional; settings: OVCAR-4, 48 h, read-out: Activity
HCC 2998 = test: Cytotoxicity against human HCC2998 cells assessed as cell growth at 0.01 uM after 48 hrs by sulforhodamine B assay relative to control; assay type: functional; settings: HCC 2998, 48 h, read-out: Activity
MOLT-4 [5] = test: Cytotoxicity against human MOLT4 cells assessed as cell growth at 0.01 uM after 48 hrs by sulforhodamine B assay relative to control; assay type: functional; settings: MOLT-4, 48 h, read-out: Activity
PC-3 [6] = test: Cytotoxicity against human PC3 cells assessed as cell growth at 0.01 uM after 48 hrs by sulforhodamine B assay relative to control; assay type: functional; settings: PC-3, 48 h, read-out: Activity
NCI-H460 = test: Cytotoxicity against human NCI-H460 cells assessed as cell growth at 0.1 uM after 48 hrs by sulforhodamine B assay relative to control; assay type: functional; settings: NCI-H460, 48 h, read-out: Activity
SF-268 = test: Cytotoxicity against human SF268 cells assessed as cell growth at 0.1 uM after 48 hrs by sulforhodamine B assay relative to control; assay type: functional; settings: SF-268, 48 h, read-out: Activity
T47D [7] = test: Cytotoxicity against human T47D cells assessed as cell growth at 0.1 uM after 48 hrs by sulforhodamine B assay relative to control; assay type: functional; settings: read-out: Activity
HCT-15 [8] = test: Cytotoxicity against human HCT15 cells assessed as cell growth at 1 uM after 48 hrs by sulforhodamine B assay relative to control; assay type: functional; settings: HCT-15, 48 h, read-out: Activity
IGROV-1 = test: Cytotoxicity against human IGROV1 cells assessed as cell growth at 1 uM after 48 hrs by sulforhodamine B assay relative to control; assay type: functional; settings: IGROV-1, 48 h, read-out: Activity
BT-549 [9] = test: Cytotoxicity against human BT549 cells assessed as cell growth at 1 uM after 48 hrs by sulforhodamine B assay relative to control; assay type: functional; settings: BT-549, 48 h, read-out: Activity
NCI-H226 = test: Cytotoxicity against human NCI-H226 cells assessed as cell growth at 10 uM after 48 hrs by sulforhodamine B assay relative to control; assay type: functional; settings: NCI-H226, 48 h, read-out: Activity
NCI-H522 = test: Cytotoxicity against human NCI-H522 cells assessed as cell growth at 10 uM after 48 hrs by sulforhodamine B assay relative to control; assay type: functional; settings: NCI-H522, 48 h, read-out: Activity
SF-539 = test: Cytotoxicity against human SF539 cells assessed as cell growth at 10 uM after 48 hrs by sulforhodamine B assay relative to control; assay type: functional; settings: SF-539, 48 h, read-out: Activity
SK-MEL-5 = test: Cytotoxicity against human SK-MEL-5 cells assessed as cell growth at 10 uM after 48 hrs by sulforhodamine B assay relative to control; assay type: functional; settings: SK-MEL-5, 48 h, read-out: Activity
Hs-578T = test: Cytotoxicity against human Hs 578T cells assessed as cell growth at 10 uM after 48 hrs by sulforhodamine B assay relative to control; assay type: functional; settings: read-out: Activity
MOLT-4 [10] = test: Cytotoxicity against human MOLT4 cells assessed as cell growth at 100 uM after 48 hrs by sulforhodamine B assay relative to control; assay type: functional; settings: MOLT-4, 48 h, read-out: Activity
HOP-62 [11] = test: Cytotoxicity against human HOP62 cells assessed as cell growth at 100 uM after 48 hrs by sulforhodamine B assay relative to control; assay type: functional; settings: HOP-62, 48 h, read-out: Activity
HCT-116 = test: Cytotoxicity against human HCT116 cells assessed as cell growth at 100 uM after 48 hrs by sulforhodamine B assay relative to control; assay type: functional; settings: HCT-116, 48 h, read-out: Activity
HCT-15 [12] = test: Cytotoxicity against human HCT15 cells assessed as cell growth at 100 uM after 48 hrs by sulforhodamine B assay relative to control; assay type: functional; settings: HCT-15, 48 h, read-out: Activity
OVCAR-4 [13] = test: Cytotoxicity against human OVCAR4 cells assessed as cell growth at 100 uM after 48 hrs by sulforhodamine B assay relative to control; assay type: functional; settings: OVCAR-4, 48 h, read-out: Activity
OVCAR-8 = test: Cytotoxicity against human OVCAR8 cells assessed as cell growth at 100 uM after 48 hrs by sulforhodamine B assay relative to control; assay type: functional; settings: OVCAR-8, 48 h, read-out: Activity
SK-OV-3 = test: Cytotoxicity against human SKOV3 cells assessed as cell growth at 100 uM after 48 hrs by sulforhodamine B assay relative to control; assay type: functional; settings: SK-OV-3, 48 h, read-out: Activity
786-0 = test: Cytotoxicity against human 786-0 cells assessed as cell growth at 100 uM after 48 hrs by sulforhodamine B assay relative to control; assay type: functional; settings: 786-0, 48 h, read-out: Activity
PC-3 [14] = test: Cytotoxicity against human PC3 cells assessed as cell growth at 100 uM after 48 hrs by sulforhodamine B assay relative to control; assay type: functional; settings: PC-3, 48 h, read-out: Activity
DU-145 = test: Cytotoxicity against human DU145 cells assessed as cell growth at 100 uM after 48 hrs by sulforhodamine B assay relative to control; assay type: functional; settings: DU-145, 48 h, read-out: Activity
T47D [15] = test: Cytotoxicity against human T47D cells assessed as cell growth at 100 uM after 48 hrs by sulforhodamine B assay relative to control; assay type: functional; settings: read-out: Activity

**Q.** With `COc1cc(-c2cc(/C=C/C(=O)c3ccc(N)cc3)[nH]n2)cc(OC)c1OC` as the compound, how does the GI50 (HL-60(TB)) read?
**A.** 1740 nM

**Q.** What about the LC50 (HL-60(TB)) of the same compound?
**A.** > 100000 nM

**Q.** What about the TGI (HL-60(TB)) of the same compound?
**A.** 10800 nM

**Q.** What about the GI50 (HOP-62 [1]) of the same compound?
**A.** 1770 nM

**Q.** What about the LC50 (HOP-62 [1]) of the same compound?
**A.** 8700 nM

**Q.** And the TGI (HOP-62 [1])?
**A.** 3920 nM

**Q.** What about the GI50 (NCI-H23) of the same compound?
**A.** 2480 nM

**Q.** And the TGI (NCI-H23)?
**A.** 6790 nM

**Q.** And the CC50 (NCI-H23; read-out: LC50 (the source's name))?
**A.** 73200 nM

**Q.** What about the GI50 (U-251) of the same compound?
**A.** 1420 nM

**Q.** What about the LC50 (U-251) of the same compound?
**A.** 5390 nM

**Q.** What about the TGI (U-251) of the same compound?
**A.** 2770 nM

**Q.** And the GI50 (BT-549 [2])?
**A.** 1380 nM

**Q.** And the LC50 (concentration killing 50% of cells) (BT-549 [2])?
**A.** 5760 nM

**Q.** And the TGI (BT-549 [2])?
**A.** 2820 nM

**Q.** What about the GI50 (T47D [3]) of the same compound?
**A.** 1420 nM

**Q.** What about the LC50 (T47D [3]) of the same compound?
**A.** > 100000 nM

**Q.** And the TGI (T47D [3])?
**A.** 4300 nM

**Q.** What about the GI50 (MDA-MB-468) of the same compound?
**A.** 1010 nM

**Q.** And the LC50 (MDA-MB-468)?
**A.** 8420 nM

**Q.** What about the TGI (MDA-MB-468) of the same compound?
**A.** 2910 nM

**Q.** What about the IC50 (MCF7) of the same compound?
**A.** 1600 nM

**Q.** What about the growth at 0.01 µM (OVCAR-5) of the same compound?
**A.** 90%

**Q.** And the growth at 0.01 µM (OVCAR-4 [4])?
**A.** 85%

**Q.** What about the growth at 0.01 µM (HCC 2998) of the same compound?
**A.** 108%

**Q.** What about the growth at 0.01 µM (MOLT-4 [5]) of the same compound?
**A.** 101%

**Q.** What about the growth at 0.01 µM (PC-3 [6]) of the same compound?
**A.** 97%

**Q.** And the growth at 0.1 µM (NCI-H460)?
**A.** 102%

**Q.** And the growth at 0.1 µM (SF-268)?
**A.** 106%

**Q.** What about the growth at 0.1 µM (T47D [7]) of the same compound?
**A.** 85%

**Q.** And the growth at 1 µM (HCT-15 [8])?
**A.** 60%

**Q.** What about the growth at 1 µM (IGROV-1) of the same compound?
**A.** 100%

**Q.** What about the growth at 1 µM (BT-549 [9]) of the same compound?
**A.** 73%

**Q.** What about the growth at 10 µM (NCI-H226) of the same compound?
**A.** -73%

**Q.** What about the growth at 10 µM (NCI-H522) of the same compound?
**A.** -51%

**Q.** What about the growth at 10 µM (SF-539) of the same compound?
**A.** -93%

**Q.** And the growth at 10 µM (SK-MEL-5)?
**A.** -95%

**Q.** What about the growth at 10 µM (Hs-578T) of the same compound?
**A.** 29%

**Q.** And the growth at 100 µM (MOLT-4 [10])?
**A.** -20%

**Q.** What about the growth at 100 µM (HOP-62 [11]) of the same compound?
**A.** -98%

**Q.** What about the growth at 100 µM (HCT-116) of the same compound?
**A.** -73%

**Q.** And the growth at 100 µM (HCT-15 [12])?
**A.** -17%

**Q.** What about the growth at 100 µM (OVCAR-4 [13]) of the same compound?
**A.** -96%

**Q.** And the growth at 100 µM (OVCAR-8)?
**A.** -91%

**Q.** What about the growth at 100 µM (SK-OV-3) of the same compound?
**A.** -98%

**Q.** What about the growth at 100 µM (786-0) of the same compound?
**A.** -90%

**Q.** What about the growth at 100 µM (PC-3 [14]) of the same compound?
**A.** -39%

**Q.** What about the growth at 100 µM (DU-145) of the same compound?
**A.** -98%

**Q.** What about the growth at 100 µM (T47D [15]) of the same compound?
**A.** -47%
